Measurements as given in PMC7284125, “Identification of annotated bioactive molecules that impair motility of the blood fluke Schistosoma mansoni” (International Journal for Parasitology: Drugs and Drug …, 2020).
Like-named read-outs stand apart in the source and are kept apart here.

Columns and labels:
S. mansoni adult worms = assay: Motility assay on adult parasites (pixel displacement, relative to DMSO control); type: cell-based, Schistosoma mansoni; settings: 10 μM; for Fractional motility: secondary screen; for motility phenotype in words: adults, long-term after washout
Experimental: Adult parasites were collected from 40 day-old female CD1 mice (Charles River) previously inoculated by the tail infection method ([Lewis, 2001]). Six weeks post-infection, mice were sacrificed, and adult worms extracted after perfusion of in the hepatic portal vein and mesenteric venules ([Lewis, 2001]). Animal procedures were reviewed and approved by the Facility Animal Care Committee of McGill University (Protocol No. 3346) and were conducted in accordance with the guidelines of the Canadian Council on Animal Care.
(§1) Schistosomulae (200/well) and adult parasites (unpaired worms) were maintained in 300 μL OPTI-MEM with 5% dialyzed FBS (without antibiotics) and exposed to compounds at 1 and 10 μM for 24 h. A kinetic assay consisting of 1, 3, 6 and 12 h incubation times was performed on selected hits by motility monitoring using a stereo microscope (SMZ1270, Nikon) for adults and an inverted microscope for schistosomulae (eclipse TE2000-U, Nikon) connected to a monochrome camera (DS-Qi2, Nikon) for image acquisition. Images were recorded at a rate of 10 frames/s for a period of 1 min and videos were analyzed using ImageJ software (version 1.41, NIH, USA). Parasite movement quantification and data analysis protocols were applied using the pixel displacement method ([Patocka et al., 2014]; [Rashid et al., 2015]) and compared to control parasites treated with DMSO. Parasites were then washed several times in Opti-MEM, 5% FBS and incubated up to an additional three days (schistosomulae) or five days (adult worms) at 37 °C, 5% CO2 and motility was recorded as described above.

[1] = tested on: S. mansoni schistosomulae; assay: Motility assay on schistosomulae (pixel displacement, relative to DMSO control); type: cell-based, Schistosoma mansoni; settings: for activity at 1 µM: Schistosoma mansoni, read-out: Fractional motility; for activity at 1 µM / Fractional motility: schistosomulae
Experimental: Puerto Rican strain Biomphalaria glabrata snails infected with S. mansoni were kindly provided by Dr. Fred Lewis (Biomedical Research Institute and BEI Resources, MD, USA). Schistosomulae were obtained by exposing six to eight weeks-old snails to continuous light for 2 h at 32 °C. The resulting suspension of cercaria was then mechanically transformed as described ([Lewis, 2001]) and cultured in Opti-MEM/antibiotics (Thermo Fisher Scientific, Waltham, MA) containing 100 μg/mL streptomycin and 100 units/ml penicillin supplemented with 5% fetal bovine serum (FBS; Thermo Fisher). Parasite cultures were incubated at 37 °C with 5% CO2 for at least 10 days with no apparent loss of viability. At this point, animals with internal dark granulations and with no observable body contraction/relaxation cycles were considered dead.
as §1

[2] = tested on: S. mansoni schistosomulae; assay: Phenotypic primary screen assay on schistosomulae (phenotype; viability by methylene blue dye exclusion); type: cell-based, Schistosoma mansoni; settings: for Phenotype / Viability (%): three-day-old schistosomulae, 10 μM, 24 h; for Phenotype: estimated 5 days post compound exposure; for Viability (%): calculated 5 days post compound exposure
Experimental: Puerto Rican strain Biomphalaria glabrata snails infected with S. mansoni were kindly provided by Dr. Fred Lewis (Biomedical Research Institute and BEI Resources, MD, USA). Schistosomulae were obtained by exposing six to eight weeks-old snails to continuous light for 2 h at 32 °C. […] At this point, animals with internal dark granulations and with no observable body contraction/relaxation cycles were considered dead.
Schistosomulae were monitored under a stereo microscope (SMZ1270, Nikon). Phenotypic observations were made by analyzing schistosomulae, 24 h after drug addition to assess any immediate effect and five days post-compound exposure to observe long-term impacts on both the movement and overall body shape in comparison to control animals exposed to DMSO only.

[3] = tested on: S. mansoni schistosomulae; assay: as above; type: cell-based; settings: Schistosoma mansoni; three-day-old schistosomulae, 10 μM, 24 h; calculated 5 days post compound exposure; read-out: Viability (%)
[4] = 120 h, secondary screen, 24h exposure, read at D5, 1 µM
[5] = secondary screen, 24h exposure, read at D1, 1 µM
[6] = secondary screen, 24h exposure, read at D1, 10 µM
[7] = secondary screen, 24h exposure, read at D5, 10 µM
[8] = secondary screen, 24h exposure, read at D5, 1 µM

Molecule | Fractional motility (S. mansoni adult worms; D1, Female adult worms) | Fractional motility (S. mansoni adult worms; D1, Male adult worms) | Fractional motility (S. mansoni adult worms; D5, Female adult worms) | Fractional motility (S. mansoni adult worms; D5, Male adult worms) | activity at 1 µM [1, 4] | activity at 1 µM [1, 5] | Fractional motility ([1]; 1h exposure, read at D1, 10 µM) | Fractional motility ([1]; 1h exposure, read at D5, 10 µM) | Fractional motility ([1]; 3h exposure, read at D5, 10 µM) | Fractional motility ([1]; 6h exposure, read at D1, 10 µM) | Fractional motility [1, 6] | Fractional motility [1, 7] | Phenotype [2] | viability at 10 µM [3] | Fractional motility [1, 5] | Fractional motility [1, 8] | Viability (%) [2] | further results
C[C@@H](NCCCc1cccc(C(F)(F)F)c1)c1cccc2ccccc12 [AMG-073] | 0.11 | -0.24 | -0.43 | -0.27 | -32% | -28% | 7.02 | 0.35 | 0.72 | 6.39 | -0.83 | -1.00 | big, granulated, blebbing | 55% |  |  |  | Fractional motility ([1]; 3h exposure, read at D1, 10 µM): 12.64; motility in extended assay with reduced incubation times, in words ([1]; three-day old schistosomulae, incubation 1 h, 3 h, 6 h): did not exhibit a significant change before the 24 hr incubation cut-off
COc1cc(N2CCN(C)CC2)ccc1Nc1nccc(-c2cn(C)c3cnccc23)n1 [AZ191] | -0.48 | 0.25 | -0.27 | 2.64 | 49% | -38% |  |  |  |  | -0.69 | -0.09 | granulated, blebbing | 89.5% |  |  |  | 
C=CC(=O)Nc1cc(Nc2nccc(-c3cn(C)c4ccccc34)n2)c(OC)cc1N(C)CCN(C)C [AZD9291] | -0.59 | 0.48 | -0.14 | -0.20 | 134% | 89% | 0.30 | -0.42 | -0.33 | -0.37 | 7.13 | -0.73 | dark, granulated, some blebbing | 39.5% |  |  |  | Fractional motility ([1]; 3h exposure, read at D1, 10 µM): 1.06; Fractional motility ([1]; 6h exposure, read at D5, 10 µM): 0.0374
C=CC[C@]1(O)CC[C@H]2[C@@H]3CCC4=CC(=O)CCC4=C3C=C[C@@]21C [Altrenogest] | -0.04 | -0.0348 | -0.50 | 0.0449 | -12% | 147% |  |  |  |  | 10.00 | -0.06 | elongated | 90% |  |  |  | 
CN(C)CCC=C1c2ccccc2CCc2ccccc21 [Amitriptyline] | 0.24 | 1.53 | 0.30 | 0.03 | -4% | 286% |  |  |  |  | 5.01 | 0.60 | elongated, granulated, blebbing | 90% |  |  |  | 
CC(=O)c1cc([N+](=O)[O-])c(Sc2ccc(F)cc2F)s1 [P22077] | -0.33 | -0.12 | -0.88 | -0.79 |  |  | 0.71 | 0.10 | -0.09 | 10.22 | 2.27 | -0.98 | dark, granulated |  | -0.36 | -0.61 | 5% | motility phenotype in words (S. mansoni adult worms): severely paralyzed adults; Fractional motility ([1]; 3h exposure, read at D1, 10 µM): 3.24; Fractional motility ([1]; 6h exposure, read at D5, 10 µM): -0.30
Cc1cnc(-c2cc(N3CCN(C(=O)CCS(C)(=O)=O)CC3)ncc2Cl)c(C)c1 [PF-5274857] | -0.02 | -0.62 | -0.13 | -0.56 |  |  |  |  |  |  | 0.15 | 4.02 | granulated |  | -0.26 | -0.49 | 96.5% | 
O=C(/C=C/c1ccc2ccccc2n1)c1ccncc1 [PFK15] | -0.30 | 4.15 | -0.50 | 0.98 |  |  |  |  |  |  | 3.41 | -0.80 | dark, granulated |  | 1.64 | -0.50 | 63% | 
N#CSc1cc(SC#N)c(N)nc1N [PR-619] | 0.35 | 0.35 | -0.88 | -0.93 |  |  |  |  |  |  | 0.27 | -0.76 | dark, granulated |  | 2.00 | 0.18 | 54,5% | hypomotility (S. mansoni adult worms; adult male and female parasites, long-term): 94.5%; motility phenotype in words (S. mansoni adult worms): severely paralyzed adults
NS(=O)(=O)C#Cc1ccccc1 [Pifithrin-μ] | -0.0347 | -0.36 | -0.90 | -0.23 |  |  |  |  |  |  | 2.61 | -1.00 | big , dark, granulated |  | 1.37 | -0.80 | 0% | 
O=C(Nc1ccccc1-c1cn2c(CN3CCNCC3)csc2n1)c1cnc2ccccc2n1 [SRT1720] | 3.42 | 2.50 | 0.62 | 1.34 |  |  |  |  |  |  | -1.00 | -1.00 | dark, granulated |  | 20.54 | 0.36 | 0% | effect on viability of schistosomulae in words ([2]; 24 h incubation, five days): lethal
HO-3867 | 0.32 | 0.13 | -0.89 | -0.84 |  |  | 1.63 | -0.56 | -0.41 | -0.37 | 2.56 | -0.58 | dark, granulated |  | 1.34 | 1.27 | 42,5% | motility phenotype in words (S. mansoni adult worms): Significant hypomotility; Fractional motility ([1]; 6h exposure, read at D5, 10 µM): -0.0245
